# Source: patent publication US12187705B2, “Heteroaryl-triazole and heteroaryl-tetrazole compounds as pesticides” (Bayer Aktiengesellschaft, priority 2018, dated 2025)
# Assays:
# Assay type in all cases: in vivo
# Nezara viridula = Nezara viridula spray test; conditions: in Hordeum vulgare, 96 h
# Method: Nezara viridula—Spray Test
# (§1) To produce a suitable preparation of active compound, 1 part by weight of active compound is mixed with the stated amount of solvent, and the concentrate is diluted with water, containing an emulsifier concentration of 1000 ppm, to the desired concentration. Further test concentrations are prepared by dilution with emulsifier containing water.
# Barley plants (Hordeum vulgare) infested with larvae of the southern green stink bug (Nezara viridula) are sprayed with a test solution containing the desired concentration of the active ingredient.
# After 4 days mortality in % is determined. 100% means all the stink bugs have been killed; 0% means none of the stink bugs have been killed.
# Spodoptera frugiperda = Spodoptera frugiperda spray test; conditions: in Zea mays, 168 h
# Method: Spodoptera frugiperda—Spray Test
# as §1, with “solvents” for “solvent,”, “and” for “and the concentrate”
# Maize (Zea mays) leaf sections are sprayed with a preparation of the active ingredient of the desired concentration. Once dry, the leaf sections are infested with fall armyworm larvae (Spodoptera frugiperda).
# After 7 days mortality in % is determined. 100% means all caterpillars have been killed and 0% means none of the caterpillars have been killed.
# Diabrotica balteata = Diabrotica balteata spray test; conditions: Diabrotica balteata, 168 h; 160 μg/well, wheat seeds, after 7 days; read-out: efficacy (seedlings grown)
# Method: Diabrotica balteata—Spray Test
# as §1
# Soaked wheat seeds (Triticum aestivum) are placed in a multiple well plate filled with agar and some water and are incubated for 1 day to germinate (5 seeds per well). The germinated wheat seeds are sprayed with a test solution containing the desired concentration of the active ingredient. Afterwards each unit is infected with 10-20 larvae of the banded cucumber beetle (Diabrotica balteata).
# After 7 days efficacy in % is determined. 100% means all the seedlings have grown up like in the untreated, uninfected control; 0% means none of the seedlings have grown.
# Nilaparvata lugens = Nilaparvata lugens spray test; conditions: Nilaparvata lugens, in Oryza sativa, 96 h
# Method: Nilaparvata lugens—Spray Test
# as §1, with “solvents” for “solvent,”, “and” for “and the concentrate”
# Rice plants (Oryza sativa) are sprayed with a preparation of the active ingredient of the desired concentration and the plants are infested with the brown planthopper (Nilaparvata lugens).
# After 4 days mortality in % is determined. 100% means all planthoppers have been killed and 0% means none of the planthoppers have been killed.
# Myzus persicae [1] = experiment: Myzus persicae oral test; conditions: 120 h
# Method: To produce a suitable preparation of active compound, 1 part by weight of active compound is mixed with the stated amount of solvent, and the concentrate is diluted with water to the desired concentration.
# 50 μl compound solution is filled in microtiter plates and 150 μl IPL41 insect medium (33%+15% sugar) is added to obtain a total volume of 200 μl per well. Afterwards the plates are sealed with parafilm through which a mixed population of the green peach aphid (Myzus persicae) can suck on the compound preparation.
# (§2) After 5 days mortality in % is determined. 100% means all aphids have been killed and 0% means none of the aphids have been killed.
# [2] = system: Anopheles funestus strain FUMOZ-R; experiment: Anopheles funestus test (ANPHFU surface treatment & contact assay); conditions: 24 hours after contact, read-out: efficacy (mortality); for mortality at 4 mg/m2: surface concentration 4 mg/m^2, 30 minutes exposure; for mortality at 20 mg/m2: surface concentration 20 mg/m^2, 30 minutes exposure
# Method: Anopheles funestus Test (ANPHFU Surface Treatment & Contact Assay)
# (§3) Solvent: Aceton+2000 ppm rapeseed oil methyl ester (RME)
# (§4) In order to produce a sufficient, active ingredient containing solution it is necessary to solve the test-compound in the solvent-mix (Acetone at 2 mg/ml/RME 2000 ppm). This solution is pipetted onto a glazed tile and after evaporation of the Acetone, adult mosquitoes of the species Anopheles funestus strain FUMOZ-R (Hunt et al., Med Vet Entomol. 2005 September; 19(3):271-5) are placed onto the dried surface. The exposure time is 30 minutes.
# (§5) Mortality in percent (%) is determined 24 hours after contact to the treated surface. 100% mortality means that all test-insects are dead, whereas 0% means that not a single insect died.
# [3] = system: Aedes aegypti strain MONHEIM; experiment: Aedes aegypti test (AEDSAE surface treatment & contact assay); conditions: 24 hours after contact, read-out: efficacy (mortality); for mortality at 4 mg/m2: surface concentration 4 mg/m^2, 30 minutes exposure; for mortality at 20 mg/m2: surface concentration 20 mg/m^2, 30 minutes exposure
# Method: Aedes aegypti Test (AEDSAE Surface Treatment & Contact Assay)
# as §3
# as §4, with “Aedes aegypti” for “Anopheles funestus”, “MONHEIM” for “FUMOZ-R (Hunt et al., Med Vet Entomol. 2005 September; 19(3):271-5)”
# as §5
# [4] = system: Culex quinquefasciatus strain P00; experiment: Culex quinquefasciatus test (CULXFA surface treatment & contact assay); conditions: 24 hours after contact, read-out: efficacy (mortality); for mortality at 4 mg/m2: surface concentration 4 mg/m^2, 30 minutes exposure; for mortality at 20 mg/m2: surface concentration 20 mg/m^2, 30 minutes exposure
# Method: Culex quinquefasciatus Test (CULXFA Surface Treatment & Contact Assay)
# as §3
# as §4, with “Culex quinquefasciatus” for “Anopheles funestus”, “P00” for “FUMOZ-R (Hunt et al., Med Vet Entomol. 2005 September; 19(3):271-5)”
# as §5
# Ctenocephalides felis [5] = experiment: Ctenocephalides felis oral test; conditions: Ctenocephalides felis, in Bos taurus, po, 48 h
# Method: Ctenocephalides felis—Oral Test
# (§6) Solvent: dimethyl sulfoxide
# To produce a suitable preparation of active compound, 10 mg of active compound are dissolved in 0.5 ml solvent, and the concentrate is diluted with cattle blood to the desired concentration.
# Approximately 20 adult unfed cat fleas (Ctenocephalides felis) are placed in flea chambers. The blood chamber, sealed with parafilm on the bottom, are filled with cattle blood supplied with compound solution and placed on the gauze covered top of the flea chamber, so that the fleas are able to suck the blood. The blood chamber is heated to 37° C. whereas the flea chamber is kept at room temperature.
# After 2 days mortality in % is determined. 100% means all the fleas have been killed; 0% means none of the fleas have been killed.
# Boophilus microplus = Boophilus microplus injection test; conditions: Rhipicephalus microplus, 168 h, 20 μg/animal, egg deposition after 7 days, read-out: efficacy (infertile eggs)
# Method: Boophilus microplus—Injection Test
# as §6
# To produce a suitable preparation of active compound, 10 mg of active compound are dissolved in 0.5 ml solvent, and the concentrate is diluted with solvent to the desired concentration.
# Five adult engorged female ticks (Boophilus microplus) are injected with 1 μl compound solution into the abdomen. The ticks are transferred into replica plates and incubated in a climate chamber.
# After 7 days egg deposition of fertile eggs is monitored. Eggs where fertility is not visible are stored in a climate chamber till hatching after about 42 days. An efficacy of 100% means all eggs are infertile; 0% means all eggs are fertile.
# Ctenocephalides felis [6] = experiment: Ctenocephalides felis in-vitro contact test adult cat flea; conditions: Ctenocephalides felis; 5 μg/cm^2 (=500 g/ha), after 48 hours; read-out: efficacy (fleas dead or moribund)
# Method: Ctenocephalides felis—In-Vitro Contact Test Adult Cat Flea
# 9 mg compound is solved in 1 ml acetone and diluted with acetone to the desired concentration. 250 μl of the test solution is filled in 25 ml glass test tubes and homogeneously distributed on the inner walls by rotation and tilting on a shaking device (2 h at 30 rpm). With a compound concentration of 900 ppm, an inner surface of 44.7 cm^2 and a homogeneous distribution, a dose of 5 μg/cm^2 is achieved.
# After the solvent has evaporated, each test tube is filled with 5-10 adult cat fleas (Ctenocephalides felis), closed with a perforated lid and incubated in a lying position at room temperature and relative humidity. After 48 hours efficacy is determined. The fleas are patted on the ground of the tubes and are incubated on a heating plate at 45-50° C. for at most 5 minutes. Immotile or uncoordinated moving fleas, which are not able to escape the heat by climbing upwards, are marked as dead or moribund.
# An efficacy of 100% means all fleas are dead or moribund; 0% means no fleas are dead or moribund.
# Myzus persicae [7] = experiment: Myzus persicae spray test; conditions: in Brassica rapa, foliar, 120 h
# Method: Myzus persicae—Spray Test
# as §1, with “solvents” for “solvent,”, “and” for “and the concentrate”
# Chinese cabbage (Brassica pekinensis) leaf disks infected with all instars of the green peach aphid (Myzus persicae), are sprayed with a preparation of the active ingredient of the desired concentration.
# as §2
Structure (SMILES),mortality at 500 g/ha (Nezara viridula),mortality at 500 g/ha (Spodoptera frugiperda),"pest or weed control at 160 µg/disc, 160 µg/well (Diabrotica balteata)",mortality at 500 g/ha (Nilaparvata lugens),mortality at 4 ppm (Myzus persicae [1]),mortality at 4 mg/m2 [2],mortality at 4 mg/m2 [3],mortality at 20 mg/m2 [3],mortality at 4 mg/m2 [4],mortality at 20 mg/m2 [4],mortality at 100 ppm (Ctenocephalides felis [5]),pest or weed control at 0.02 mg (Boophilus microplus),mortality at 20 mg/m2 [2],"pest or weed control at 5 µg/cm2, 5 µg/cm2 (Ctenocephalides felis [6])",mortality at 500 g/ha (Myzus persicae [7])
"C[C@H](NC(=S)c1cc(F)cc(C2CC2)c1)c1ncnn1-c1ccc(C#N)cn1 [Example I-120, N-{(1S)-1-[1-(5-cyanopyridin-2-yl)-1H-1,2,4-triazol-5-yl]ethyl}-3-cyclopropyl-5-fluorobenzenecarbothioamide]",100%,100%,100%,100%,–,–,–,–,–,–,–,–,–,–,–
CC(c1ncnn1-c1ncccn1)N(CC1CC1)C(=O)c1c(F)cccc1F (centres unmarked) [Example I-018],–,–,–,100%,–,–,–,–,–,–,–,–,–,–,–
"C[C@H](NC(=O)c1cc(Cl)cc(S(=O)(=O)CC(F)(F)F)c1)c1ncnn1-c1ncccn1 [Example I-093, 3-chloro-N-{(1S)-1-[1-(pyrimidin-2-yl)-1H-1,2,4-triazol-5-yl]ethyl}-5-[(2,2,2-trifluoroethyl)sulfonyl]benzamide]",100%,–,100%,–,90%,85 to 100%,80 to 100%,90 to 100%,80 to 100%,80 to 100%,–,–,–,–,–
C[C@@H](NC(=O)c1cncc(-c2ccc(F)cc2)c1)c1ncnn1-c1ncccn1 [Example I-111],–,–,–,100%,–,–,–,–,–,–,–,–,–,–,–
CC(c1ncnn1-c1ncccn1)N(CC(F)F)C(=O)c1cc(Cl)cc(S(C)(=O)=O)c1 (centres unmarked) [Example I-041],100%,–,100%,100%,100%,85 to 100%,80 to 100%,90 to 100%,80 to 100%,80 to 100%,100%,100%,85 to 100%,90%,–
CC(NC(=O)c1cc(Cl)cc(-n2cncn2)c1)c1ncnn1-c1ncccn1 (centres unmarked) [Example I-049],100%,–,100%,100%,–,85 to 100%,80 to 100%,90 to 100%,–,80 to 100%,100%,100%,85 to 100%,–,–
Cc1cnc(-n2ncnc2[C@@H](C)NC(=O)c2cc(Cl)cc(S(C)(=O)=O)c2)nc1 [Example I-096],100%,100%,–,–,100%,–,–,–,–,–,–,–,–,–,90%
